Reference: patent US12115222B2, “Compositions and methods for improving the solubility of erectile dysfunction therapeutics” (Villya LLC, priority 2023, dated 2024)
Where two headings read alike, the source gives them in different places.

How the values were obtained:
[1] = drug alone; cited from earlier work
[2] = tested on: S. mansoni newly transformed schistosomula (NTS)
[3] = Stability of the dissolved complex on standing (precipitate); type: physicochemical
Description: […] […] The clear solution was then dried as described in Step 2 in Example 8. The 10 mg dried solid was then dissolved in 0.6 mL D20.
For NMR, 10 mg of the solid sample obtained was dissolved in 0.6 mL D20. The dissolved 10 mg sample again produced a clear and homogeneous solution. […] The complex in D20 remained stable for 9 days without any observable precipitate forming.

[4] = Description: After solubilizing the sugar and the compound in ethanol or aqueous ethanol, the ethanol is evaporated for example under a high rotary vacuum. The powder resulting from the evaporation step is then resolubilized (dissolved) in water. Another solvent can be methanol at 80% methanol, 95% (ACS grade) or greater (to 100% methanol) as well as combinations of methanol and ethanol or methanol and water. After solubilizing the sugar and the compound in ethanol or aqueous ethanol, the ethanol is evaporated for example under a high rotary vacuum. The powder resulting from the evaporation step is then resolubilized (dissolved) in water.
Generally, ingredients are deposited into a sealed container with ethanol and vortex-mixed to form a solution. The solution is subjected to centrifugation. The ethanol is evaporated off and the dried mixture was dissolved in water. This mixture is centrifuged again and the supernatant is filtered through a membrane. […] In one embodiment, the admixing process involves dissolving the PSD and sugar in the ethanol while stirring and adjusting the pH as necessary to obtain complete dissolution and a clear reaction mixture. The reaction mixture can then be dried to remove the ethanol. No further water washing or filtering is needed.
In this example, an oven-dried single-neck RB flask equipped with a magnetic stir bar was used. […] The reaction mixture was vigorously stirred at room temperature for 30 min at 20° C. […] The white solid was dried using vacuum drying performed at room temperature and a high vacuum pump for about one hour to remove the ethanol (EtOH) completely using an Edvards Model #RV8 […], a Heidolph type Basis Hei-VAP Value, No. 560-00000-0101. The high vacuum pump was connected to a cooling trap and the trap was connected to the RB flask. Vacuum strength was about 1 mm Hg.
The white foamy solid was dried over a high vacuum at room temperature for an additional hour to remove the water completely, by ascertaining changes in weight loss. Drying continued until further weight loss was not observed.
Step 1: In an oven-dried single neck RB flask equipped with magnetic stir and septa (flask cap), 5 mg sildenafil (0.01054 mmol) and 16.95 mg stevioside (1:2 molar ratio) were weighed into the RB flask and dissolved in 85% ethanol (˜2.0 mL, denatured 85% ethanol) at ambient temperature. The reaction mixture was vigorously stirred at room temperature for 30 min. […] The white solid was dried over a high vacuum for an hour to remove the ethanol completely (no further reduction in weight was observed).
Step 2: The obtained white solid was then dissolved in 2.0 mL water at room temperature in an RB flask with a magnetic stir bar. The reaction mixture was stirred at ambient temperature for 30 min. […] The white foamy solid was dried over a high vacuum at room temperature for an additional hour to remove the water completely. The weight of the flask was checked while drying until no further weight loss was observed.

SMILES | Solubility of Praziquantel In Ethanol (95%), without sugar [1] | Solubility of Praziquantel In Water, without sugar [1] | 24 hr Exposure LD50 ([2]; 24 hr exposure) | 72 hr exposure LD50 ([2]; 72 hr exposure (table)) | LD50 ([2]; exposure after 72 hours) | time until the water solution became white and turbid ([3]; Example 16, praziquantel:rubusoside 1:2 molar, 0.1 N HCl, pH ~4.7) | solubility by 1H-NMR [4] | solubility by 1H-NMR analysis [4] | solubility for the drug by 1H-NMR analysis [4] | solubility in 95% ethanol with Dulcoside A [4] | solubility in 95% ethanol with rebaudioside B [4] | solubility in 95% ethanol with rebaudioside D [4] | solubility in water by NMR [4] | solubility in water in complex with dulcoside B [4] | solubility in water with D-fructose (NMR) [4] | solubility in water with rebaudioside D [4] | time remained in solution in D2O ([3]; Example 14, 1:3 molar with citric acid) | solubility in water by 1H-NMR [4] | solubility in water by NMR ([4]; 30 min)
O=C(C1CCCCC1)N1CC(=O)N2CCc3ccccc3C2C1 (stereo not shown) [Praziquantel] | 9.7 g/100 mL | 0.04 g/100 mL | 33.5 ± 5.71 µM | 24.3 ± 0.67 µM | 33.9 ± 0.64 µM | 15 min | 0.65 | 0.89 | 1.73 | insoluble | insoluble | insoluble | only partial solubility | well soluble | did not make praziquantel soluble or more soluble | insoluble | – | – | –
CCCc1nn(C)c2c(=O)[nH]c(-c3cc(S(=O)(=O)N4CCN(C)CC4)ccc3OCC)nc12 [Sildenafil, 5-[2-ethoxy-5-(4-methylpiperazin-1-yl)sulfonylphenyl]-1-methyl-3-propyl-6H-pyrazolo[4,3-d]pyrimidin-7-one] | – | – | – | – | – | – | – | – | – | – | – | – | – | – | – | – | 3 days | 100% | 100%
